The values that follow come from patent US20230320360A1, “FORMULATIONS AND METHODS FOR REGULATING AND STIMULATING PLANT GROWTH” (priority 2020, published 2023).

This assay has as its system corn fall armyworm (FAW) (Spodoptera frugiperda). Briefly: Field trials, insecticide plus ortho silicic acid against corn fall armyworm. On the set-up: concentration or dose not given beside the values. It is filed as in vivo.

Turning to `CNC(=O)c1cc(Cl)cc(C)c1NC(=O)c1cc(Br)nn1-c1ncccc1Cl` [CTPR, Chlorantraniliprole], the “Percent Control (%)” value (A01 = 1 day after first spray) worked out at 67.6%; the “Percent Control (%)” value (B07 = 7 days after 2nd spray) was determined as 86.8%; the “Percent Control (%)” value (B10, after 2nd application) came out at 88.9%; the “Percent Control (%)” value (B21, after 2nd application) turned out to be 87%.

Turning to `O=C(NC(=O)c1c(F)cccc1F)Nc1ccc(OC(F)(F)C(F)OC(F)(F)F)c(Cl)c1` (stereo not drawn) [Novaluron], the “Percent Control (%)” value is recorded as 60.5% (A01 = 1 day after first spray); 88.8% (B07 = 7 days after 2nd spray); 88.9% (B10, after 2nd application); 84.7% (B21, after 2nd application).

Take Orthosilicic acid [OSA]: the “Percent Control (%)” value (A01 = 1 day after first spray) was found to be 32.4%; the “Percent Control (%)” value (B07 = 7 days after 2nd spray) turned out to be 58.6%; the “Percent Control (%)” value (B10, after 2nd application) came to 60.6%; the “Percent Control (%)” value (B21, after 2nd application) is 59%.
